In PubChem BioAssay (NCI) one finds TGI and GI50 data, which are given here for 15 molecules.

Holding throughout (assay): DTP human tumour cell line panel, 48 h
Test [1] has as its system SR leukemia.
For test [2], the system named is HOP-62 NSCLC.
Test [3] has as its system NCI-H226 lung.
The subject of test [4] is ACHN renal.
The test system of test [5] is HOP-92 NSCLC.
For test [6], the system named is IGROV1 ovarian.
Test [7] has as its system SK-MEL-2 melanoma.
Test [8] has as its system HCT-116 colon.
Test [9] concerns HCC-2998 colon.
In test [10] the test system is DU-145 prostate.

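48-hour exposure; five concentrations; linearly interpolated endpoints. Here, GI50 denotes the concentration required for 50% inhibition of growth. Definition used: TGI = concentration required for complete inhibition of growth.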

For the molecule `COc1cc(C)c2c(c1)CN1CN2Cc2cc(OC)cc(C)c21`, the concentration for total growth inhibition (TGI) in test [1], in test [2], in test [3], in test [4], in test [5] and in test [6] was more than 100 µM each time. The TGI in [7] and in [8] was more than 100 µM throughout.
Consider `CC(=O)Nc1ccc(C2CC(c3ccc([N+](=O)[O-])cc3)=Nc3ccccc3S2)cc1` (stereo unspecified), for which the concentration for total growth inhibition (TGI) (as a rule, the concentration giving total growth inhibition) in test [1] was determined as 61.9 µM; in test [2], 50.8 µM; in test [3], 86.3 µM; in [4], 32.1 µM; in test [6], 67.2 µM; in test [7] it was 32.9 µM. In [8], this molecule showed a total growth inhibition concentration (TGI) of 25.1 µM.
As for `Clc1ccccc1C(Nc1cnccn1)Nc1cnccn1`, the concentration for total growth inhibition (TGI) in test [2], in [9], in [3], in test [4], in test [5] and in test [10] was more than 100 µM each time. Further, the TGI in test [6], in [7] and in [8] was more than 100 µM throughout.
Consider `CCN(CC)C(=S)SSC(C)C`, for which the GI50 (as a rule, the concentration giving 50% growth inhibition) in [2] is 24700 nM; in test [9], 16.8 µM; in test [3], 29.4 µM; in test [4], 17200 nM; in test [5] it was 15.2 µM; in [10] it was 17.1 µM. In addition, the GI50 in test [7] is 23.3 µM. Moreover, the TGI in test [2] is 86.7 µM; in test [9], 31.1 µM; in test [3] it was more than 100 µM; in [4] it was 33.3 µM; in test [5], 36.1 µM; in test [10], 35.2 µM. The TGI in test [7] stood at 62 µM.
As to `N/N=C(/Cc1ccccc1)NNO`, the concentration for total growth inhibition (TGI) in [9], in test [3], in test [4], in [5], in [6] and in [7] was more than 100 µM throughout. Also, in [8], the TGI is more than 100 µM.
Turning to `CC(C)(C)C#COC(=O)c1ccccc1`, the total growth inhibition concentration (TGI) in test [1], in [2], in test [9], in test [3], in test [4] and in [6] was more than 100 µM in each case. In addition, the TGI in test [7] and in test [8] was more than 100 µM in each case.
Turning to `CN1CCCC2[C@@H]3CCC4c5nonc5CC[C@]4(C)C3CC[C@@]21C` (stereo partly specified), the TGI in test [1], in test [3], in test [4], in [6], in [7] and in test [8] was more than 100 µM throughout.
Consider `Cn1c(=O)oc2cc(C3CCC(=O)N3Cc3csc(-c4ccccc4)n3)ccc21` (stereo unspecified), for which the concentration for total growth inhibition (TGI) in test [1], in test [2], in test [9], in [3], in test [4] and in [6] was more than 100 µM throughout. Besides, the concentration for total growth inhibition (TGI) in test [7] and in [8] was more than 100 µM throughout.
`Cc1ccc(C2=CC(=O)c3ccccc3C2=O)n1-c1ccccc1`: the TGI in [2] is more than 100 µM; in [9], more than 100 µM; in [3], 84.8 µM; in [6], more than 100 µM; in test [8], more than 100 µM.
For `Cc1cc2c(c(C(=O)O)c1C)-c1cccc(Cl)c1C2=O`, the TGI in test [2], in test [9], in test [3], in test [4], in test [6] and in test [7] was more than 100 µM throughout.
`CCCCCCCC/C=C/CCCCCCCC1=NC(C)(C)CN1C(C)(C)CO`: the GI50 in test [2] was 1760 nM; in [9], 1.65 µM; in [3] it was 2.87 µM; in test [4] it was 1810 nM; in test [10], 1.86 µM; in test [7], 1.76 µM. In [8], the GI50 was 1.52 µM. In addition, the TGI in [2] came to 3.28 µM; in test [9], 3.04 µM; in test [3], 7.61 µM; in test [4], 3.52 µM; in test [10], 3.32 µM; in test [7] it was 3.67 µM. Besides, in test [8], the TGI was determined as 2.9 µM.
Consider `COc1ccc(-c2nc3ccccc3s2)cc1OC`, for which the TGI in test [1], in test [2], in [4], in [5], in test [7] and in test [8] was more than 100 µM in each case.
With `COc1ccc2c(c1)C(=O)c1c-2c(OCCCN(C)C)nc2cc(Br)ccc12`, the GI50 in [2] was 1810 nM; in test [9], 10.3 µM; in [3] it was 4.63 µM; in test [4], 1290 nM; in test [5] it was 6.12 µM; in [10] it was 5.91 µM. Also, the GI50 was 19.1 µM in test [7] and 5.16 µM in test [8]. Also, the TGI in test [2] was found to be 4.29 µM; in test [9], 22.7 µM; in test [3], 18.7 µM; in test [4] it was 2.73 µM; in [5] it was 20.4 µM; in test [10], 18.9 µM. The TGI in test [6] was determined as 26.9 µM; in [7] it was 36.3 µM; in test [8], 18.5 µM.
Turning to `O=c1[nH]ccc(CNC23CC4CC(CC(C4)C2)C3)c1O`, the total growth inhibition concentration (TGI) in test [1], in test [2], in test [9], in test [3], in [4] and in [6] was more than 100 µM in each case. The TGI in test [7] and in [8] was more than 100 µM throughout.
Take `CC(C)C[C@@H](N)[C@@H](O)C(=O)N[C@H](C(=O)N[C@H](C(=O)N[C@@H](CC(=O)O)C(=O)O)C(C)C)C(C)C`: the GI50 was more than 20000 nM in [2]; more than 20 µM in test [9]; more than 20 µM in test [3]; more than 20000 nM in test [4]; 10.3 µM in test [5]; more than 20 µM in test [10]. Also, the GI50 in test [6], in test [7] and in test [8] was more than 20 µM in each case. For the same molecule, the total growth inhibition concentration (TGI) in test [2], in [9], in test [3], in test [4], in test [5] and in test [10] was more than 20 µM in each case. In addition, the total growth inhibition concentration (TGI) in test [6], in test [7] and in test [8] was more than 20 µM throughout.
